Data published in patent publication US11780868B1, “Homoleptic metal coordination complexes as antifungal agents” (King Abdulaziz University, priority 2023, dated 2023).
Converted amounts (≈) assume the structure as drawn. Blank lines part the entries; values can stand above or below the molecule they belong to.

Key:
C. albicans 4085 = assay: Broth microdilution MIC/MFC (CLSI M27-A4); assay type: cell-based, Candida albicans; settings: Candida albicans; C. albicans 4085 (Flz resistant), 37° C., 24 h; read-out: Median MIC
Procedure: (§1) In this work, nine strains of C. albicans procured from Charlotte Maxeke Johannesburg Academic Hospital under ethical clearance number M000402 were employed (Table 1). All the C. albicans strains were preserved at −70° C. deep freezer in 50% (v/v) anhydrous glycerol (Sigma-Aldrich St. Louis, MO, U.S.A.). For conducting experiments, cultures were revived in Sabouraud Dextrose broth (SDB; Merck, Germany) at 37° C. and 120 rpm for 24 h. Additionally, the RPMI 1640 medium and MOPS (Sigma-Aldrich, USA) were prepared as described by the Clinical and Laboratory Standards Institute (CLSI).
(§2) The activity of C1 against Candida species (n=9) was first estimated in terms of minimum inhibitory concentration (MIC) and minimum fungicidal concentration (MFC). […] Briefly, stock solutions of Flz (used as reference; Sigma-Aldrich St. Louis, MO, U.S.A.) and the synthesized compound was prepared in 1% dimethyl sulfoxide (DMSO; Sigma-Aldrich St. Louis, MO, U.S.A.) and the test concentrations were formulated in RPMI 1640-MOPS medium. A two-fold dilution of the compound (1250-0.61 μg/mL) and reference drug (128-0.062 μg/mL) was prepared in 96 well plates which were then seeded with C. albicans inoculum (1×10^6 cells/mL) and incubated at 37° C. for 24 h. In every set of experiments, sterility control, 1% DMSO as negative control and growth control were included. Growth was quantified by reading the optical density at 620 nm in a UV-1800 SHIMADZU spectrophotometer (Shimadzu Corporation, Japan). The MIC was determined as the lowest concentration that inhibited the growth of Candida strains. To determine MFC, each well without visible growth was subcultured onto the SDA plates for 24 hours at 37° C. The lowest concentration killing ≥99.9% of Candida was taken as the MFC value of the test compound.

C. albicans 4180 = assay: Broth microdilution MIC/MFC (CLSI M27-A4); assay type: cell-based, Candida albicans; settings: Candida albicans; C. albicans 4180 (Flz sensitive), 37° C., 24 h; read-out: Median MIC
Procedure: as §1, §2

C. albicans 4106 = assay: Broth microdilution MIC/MFC (CLSI M27-A4); assay type: cell-based, Candida albicans; settings: Candida albicans; C. albicans 4106 (Flz resistant), 37° C., 24 h; read-out: Median MIC
Procedure: as §1, §2

C. albicans 4324 = assay: Broth microdilution MIC/MFC (CLSI M27-A4); assay type: cell-based, Candida albicans; settings: Candida albicans; C. albicans 4324 (Flz resistant), 37° C., 24 h; read-out: Median MIC
Procedure: as §1, §2

C. albicans 5112 [1] = assay: Broth microdilution MIC/MFC (CLSI M27-A4); assay type: cell-based, Candida albicans; settings: Candida albicans; C. albicans 5112 (Flz resistant), 37° C., 24 h; read-out: Median MIC
Procedure: as §1, §2

C. albicans SC5314 = assay: Broth microdilution MIC/MFC (CLSI M27-A4); assay type: cell-based, Candida albicans; settings: Candida albicans; C. albicans SC5314 (control), 37° C., 24 h; read-out: Median MIC
Procedure: as §1, §2

C. albicans 4251 [2] = assay: Broth microdilution MIC/MFC (CLSI M27-A4); assay type: cell-based, Candida albicans; settings: Candida albicans; C. albicans 4251 (Flz sensitive), 37° C., 24 h; read-out: Median MIC
Procedure: as §1, §2

C. albicans 4175 = assay: Broth microdilution MIC/MFC (CLSI M27-A4); assay type: cell-based, Candida albicans; settings: Candida albicans; C. albicans 4175 (Flz sensitive), 37° C., 24 h; read-out: Median MIC
Procedure: as §1, §2

C. albicans 4554 = assay: Broth microdilution MIC/MFC (CLSI M27-A4); assay type: cell-based, Candida albicans; settings: Candida albicans; C. albicans 4554 (Flz sensitive), 37° C., 24 h; read-out: Median MIC
Procedure: as §1, §2

C. albicans 5112 [3] = assay: Cell count and viability assay (Muse cell analyser); assay type: cell-based, Candida albicans; settings: C. albicans 5112, hydrogen peroxide 10 mM 1:1 with inoculum, 24 h; untreated 86.8%
Procedure: (§3) Quantification of Live/Dead C. albicans cells in response to C1 was carried out. The actual count of viable and dead cells of C. albicans by treatment of C1 was monitored by Cell Count and Viability assay kit. An inoculum (1×10^6 cells/mL) of both Flz sensitive (C. albicans 4251) and resistant (C. albicans 5112) C. albicans strains was prepared followed by treatment with various concentrations of C1 (0.5×MIC, 1×MIC and MFC) for 24 h at 37° C. and 150 rpm. For the negative control, only inoculum treated with 1% DMSO was used and for the positive control, hydrogen peroxide (10 mM) was used in a 1:1 ratio with the inoculum. Following incubation, the cells were then washed in PBS and centrifuged at 4000 rpm for 5 minutes at 4° C. and the final pellet was resuspended in PBS. The Cell Count and Viability assay samples were prepared by mixing 190 μL of Luminex Cell Viability Dilution Buffer and 10 μL of the sample in a 1.5 mL Eppendorf tube and incubated in the dark for 5 min at room temperature. All samples were analysed by a Guava® Muse® Cell Analyser (Luminex A DiaSorin Company, USA).

C. albicans 4251 [4] = assay: as above; assay type: cell-based, Candida albicans; settings: C. albicans 4251, hydrogen peroxide 10 mM 1:1 with inoculum, 24 h; untreated 90.9%
Procedure: as §3

C. albicans 5112 [5] = assay: JC-10 mitochondrial membrane potential assay; assay type: cell-based, Candida albicans; settings: C. albicans 5112, H2O2 treated positive control; negative control 2.92
Procedure: (§4) To examine the effect of C1 on the induction of cellular apoptosis in C. albicans cells, crucial apoptotic markers were observed. For this purpose, C. albicans 4251 and C. albicans 5112 cells were subjected to protoplast preparation by utilizing a method described previously by Srivastava et al. in 2020 through their research study. […] Later on, the cells were washed and incubated for 10 min at room temperature in protoplast buffer-1 (1M sorbitol, 0.05M tris base, 0.01M MgCl2, 0.03M DTT, pH 7.4). The cells were spun at 1500 rpm for 5 min and the pellet was resuspended in protoplast buffer-2 (1M sorbitol, 0.05M tris base, 0.01M MgCl2, 0.001M DTT, pH 7.4) supplemented with […] enzyme (1 μg/mL) and incubated for 1 h at room temperature. Afterwards, the cell suspension was again centrifuged, and the pellet was resuspended and incubated for 20 min at room temperature in protoplast buffer-3 (1M sorbitol, 0.05M tris base, 0.01M MgCl2, pH 7.4). A final washing (1500 rpm for 5 min) was given to the cells and the pellet consisting of C. albicans protoplasts was resuspended in fresh PBS and was stored at 4° C. until further use. Measurement of mitochondrial membrane potential in C. albicans was carried out and the potential of C1 in destabilising mitochondrial membrane potential (Δψm) in C. albicans was established by JC-10 mitochondrial membrane potential assay kit (Abeam, Cambridge, UK). The experiment was performed according to manufacturer instructions. 90 μL of prepared protoplast of C. albicans 4251 and C. albicans 5112 was added to a 96-well microplate (with black walls and clear bottom), followed by the addition of 50 μL/well of JC-10 dye-loading solution. The microplate was incubated for 1 hour at 37° C. in the dark. This was followed by the addition of 50 μL/well of assay buffer B. The microplate was then immediately centrifuged at 800 rpm for 2 minutes. The fluorescence intensity was monitored at an Ex/Em=490/530 nm (present in apoptotic cells, monomeric form and green fluorescence; represented as X) and 540/590 nm (present in live cells, dye aggregates and red fluorescence; represented as Y) using a SpectraMax® ID3 Multimode Plate Reader (Molecular Devices, LLC., USA). The ratio between the aggregate and monomeric forms was measured to find the change in mitochondrial membrane potential. The mitochondrial membrane depolarization is indicated by decreasing ratio values.

C. albicans 4251 [6] = assay: JC-10 mitochondrial membrane potential assay; assay type: cell-based, Candida albicans; settings: C. albicans 4251, H2O2 treated positive control; negative control 2.65
Procedure: as §4

C. albicans 4251 [7] = assay: Cell cycle analysis (Muse cell analyser); assay type: cell-based, Candida albicans; settings: 10 mM H2O2 positive control; stated for C. albicans without naming a strain
Procedure: The effect of C1 on the cell cycle of C. albicans 4251 and C. albicans 5112 was determined using Cell Cycle kit MCH100106 in a Guava® Muse® Cell Analyser according to the manufacturer's instructions. The cells of the C. albicans (1×10^6 cells/mL) were exposed to C1 for 4 h at different concentrations (0.5×MIC and 1×MIC). Each sample was rinsed with fresh PBS after exposure, and the pellet was fixed in 1 mL of 70% ice-cold ethanol (Sigma Aldrich Co., USA). The Cell Cycle assay was prepared by mixing the 100 μL of Luminex® Cell Cycle dye and 100 μL of the prewashed fixed cells and incubated in the dark for 30 minutes at room temperature. All samples were analysed by a Guava® Muse® Cell Analyser (Luminex® A DiaSorin Company, USA). During the experiment, both the negative (without treatment) and positive control (10 mM H2O2 treated) were used.

- MIC (C. albicans 4085): 16 µg/mL (≈ 52.2 µM)
- MIC (C. albicans 4180): 0.25 µg/mL (≈ 0.816 µM)
- MIC (C. albicans 4106): 32 µg/mL (≈ 104 µM)
- MIC (C. albicans 4324): 32 µg/mL (≈ 104 µM)
- MIC (C. albicans 5112 [1]): 64 µg/mL (≈ 209 µM)
- MIC (C. albicans SC5314): 0.25 µg/mL (≈ 0.816 µM)
- MIC (C. albicans 4251 [2]): 0.5 µg/mL (≈ 1.63 µM)
- MIC (C. albicans 4175): 0.25 µg/mL (≈ 0.816 µM)
- MIC (C. albicans 4554): 0.25 µg/mL (≈ 0.816 µM)
Structure (SMILES): OC(Cn1cncn1)(Cn1cncn1)c1ccc(F)cc1F [Flz, fluconazole, reference compound]

Structure (SMILES): OO [Complex H2O2, hydrogen peroxide, reference compound]
- live cells (C. albicans 5112 [3]): 26.1%
- live cells (C. albicans 4251 [4]): 19.9%
- average fluorescence ratio JC-10 aggregates/JC-10 monomers (C. albicans 5112 [5]): 2.75
- average fluorescence ratio JC-10 aggregates/JC-10 monomers (C. albicans 4251 [6]): 2.5
- impact on the cell cycle (C. albicans 4251 [7]): not much impact

- melting point: 119 °C
Structure (SMILES): Oc1ccc(Br)cc1/C=N/c1ccc2c(c1)OCCO2 [L, (E)-4-bromo-2-{[(2,3-dihydrobenzo[b][1,4]dioxin-6-yl)imino]methyl}phenol]
